According to patent EP4603477A1, “INHIBITORS OF THE CORONAVIRUS ACCESSORY PROTEIN ORF9B” (Consejo Superior De Investigaciones Científicas, priority 2024, dated 2025):

System: THP-1 cells stably integrating and constitutively expressing ORF9b
Assay: Cytokine quantification (Procartaplex multiplex) in THP-1 cells expressing ORF9b
Format: cell-based
Settings: 1 µM or 5 µM
Method: THP-1 cells stably integrating and constitutively expressing ORF9b were generated as described under "Biochemical and biological activity (2)". Cytokines (IL-1β, IL-18, IL-10, TNF-α) were quantified by means of Procartaplex multiplex assays (InVitrogen, ThermoFisher), following instructions by the supplier. Briefly, capture beads were incubated for 2 h with cleared cell supernatants, washed and incubated with biotinylated detection antibody mix, incubated for 30 min, washed and incubated with Streptavidin-PE for 30 min, washed and data acquired on a Luminex 200 instrument. To ascertain the effect of ORF9b homodimerization inhibitors on ORF9b-mediated cytokine secretion, THP1-1 cells with the above modifications were treated with 1 µM or 5 µM of each of the compounds (final concentrations in cell culture media), and cytokine levels determined in cell culture supernatants. All determinations were performed in triplicate, and analyzed statistically significance in differences by means of a two-tailed Student's t-test. Inhibition of ORF9b-mediated secretion of cytokines was considered significant with p values ≤ 0.05.

Compound | ORF9b-induced release of IL-1β | ORF9b-induced release of IL-10 | ORF9b-induced release of IL-18 | ORF9b-induced release of TNF-α
Nc1ccc(F)c(NC(=O)Cc2ccccc2)c1 [Compound 1] | inhibited | inhibited | inhibited | 
O=C(Cc1ccc(Cl)cc1)Nc1cc([N+](=O)[O-])ccc1F [Compound 6, 2-(4-Chlorophenyl)-N-(2-fluoro-5-nitrophenyl)acetamide] | inhibited | inhibited | inhibited | 
CC(C)(O)c1coc(S(=O)(=O)NC(=O)Nc2c3c(cc4c2CCC4)CCC3)c1 [MCC950, reference compound] | abrogated | abrogated | abrogated | abrogated
Nc1ccc(F)c(NC(=O)c2cccc3ccccc23)c1 [Compound 2, N-(5-Amino-2-fluorophenyl)-1-naphthamide] | inhibited | inhibited | inhibited | 
